pIC50: −log10 of the molar value. Where two headings read alike, the source gives them in different places.
How the values were obtained:
[1] = tested on: phosphorylation of Cdc2 Y15 (Wee1 substrate) in A427 cells; test: Phosphorylated Cdc2 MSD Electrochemiluminescence Assay; assay type: cell-based; conditions: Homo sapiens
How it was run: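 Read-out: percent residual phospho-Cdc2 Y15 relative to DMSO and positive-control Wee1 inhibitor, measured by MSD electrochemiluminescence capture/detection antibody assay in cell lysates. A427 cells received duplicate 3-fold compound dilution series 20 h post-seeding, with 6 h total incubation at 37 °C.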

Wee1 kinase domain = biological target: T1, Wee1 kinase domain (Homo sapiens, UniProt P30291); test: Wee1 Kinase Biochemical Assay (ADP-Glo); conditions: 15 uM ATP
T1 construct: Wee1 kinase domain was purchased from Carna (catalog #05-177); purchased Carna 05-177
How it was run: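 Compounds tested against 1 nM Wee1 kinase domain in Tris buffer containing 20 mM MgCl2, BSA and 2 mM DTT, with 15 uM ATP and poly(Lys,Tyr) substrate for 4 h at 25 °C. Luminescent ADP detection gave percent inhibition, normalized to DMSO and saturating inhibitor.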

[2] = A-427, class symbols, read-out: A427 pCDC2 MSD IC50
[3] = class symbols, 1 nM Wee1 enzyme, 4 hours at 25° C.

T1 sequence (P30291 299-569 limits assumed): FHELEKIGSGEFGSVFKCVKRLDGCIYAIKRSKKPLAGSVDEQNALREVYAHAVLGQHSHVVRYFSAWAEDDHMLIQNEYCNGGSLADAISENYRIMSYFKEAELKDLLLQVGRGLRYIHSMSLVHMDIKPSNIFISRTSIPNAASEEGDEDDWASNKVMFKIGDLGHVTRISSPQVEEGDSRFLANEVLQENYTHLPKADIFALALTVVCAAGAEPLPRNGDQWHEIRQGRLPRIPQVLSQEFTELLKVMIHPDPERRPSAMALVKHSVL

Q: What does the source list for CNCc1cccc(N2c3nc(Nc4ccn([C@@H]5CCOC5)c(=O)c4)ncc3[C@@]3(C)COC(C)(C)C[C@@H]23)n1 (single isomer, unassigned) [Example 388]?
A: pIC50 ([1]; A-427, pCDC2 MSD): 6.00 to 7.00; pIC50 (Wee1 kinase domain; Wee1 kinase domain, ADP-Glo): > 8.00

Q: How did the pIC50 ([1]; A-427, pCDC2 MSD) turn out when CN1CC[C@@H](n2ccc(Nc3ncc4c(n3)N(c3cccc(N=S(C)(C)=O)n3)[C@@H]3CC(C)(C)OC[C@]43C)n2)C1 (single isomer, unassigned) [Example 227] was run?
A: 5.00 to 6.00

Q: What about the pIC50 (Wee1 kinase domain; Wee1 kinase domain, ADP-Glo) of the same compound?
A: > 8.00

Q: How did the pIC50 [1, 2] turn out when CN1CCN(c2ccc(Nc3ncc4c(n3)N(c3ccn(C(F)F)n3)[C@@H]3CC(C)(C)OC[C@]43C)cc2)CC1 (single isomer, unassigned) [Example 720] was run?
A: 6.00 to 7.00

Q: What about the pIC50 (Wee1 kinase domain; [3]) of the same compound?
A: > 8.00

Q: CN1CC(c2ccc(Nc3ncc4c(n3)N(c3cccc(N=S5(=O)CCCC5)n3)[C@@H]3CC(C)(C)OC[C@]43C)cc2)C1 (single isomer, unassigned) [Example 754] was tested. Which pIC50 [1, 2] did it give?
A: > 7.00

Q: What about the pIC50 (Wee1 kinase domain; [3]) of the same compound?
A: > 8.00

Q: CC1(C)C[C@H]2N(c3cccc(N=S(C)(C)=O)n3)c3nc(Nc4ccc(O[C@H]5CCNC5)cc4)ncc3[C@@]2(C)CO1 (single isomer, unassigned) [Example 153] was tested. Which pIC50 ([1]; A-427, pCDC2 MSD) did it give?
A: > 7.00

Q: And the pIC50 (Wee1 kinase domain; Wee1 kinase domain, ADP-Glo)?
A: > 8.00

Q: Cn1cc(Nc2ncc3c(n2)N(c2cccc(N=S(C)(C)=O)n2)[C@@H]2CC(C)(C)OC[C@]32C)cn1 (single isomer, unassigned) [Example 484] was tested. Which pIC50 [1, 2] did it give?
A: > 7.00

Q: What about the pIC50 (Wee1 kinase domain; [3]) of the same compound?
A: > 8.00

Q: CC1(C)C[C@H]2N(c3cccc(N=S(C)(C)=O)n3)c3nc(Nc4ccc([C@]5(C)CCNC5)cc4)ncc3[C@@]2(C)CO1 (single isomer, unassigned) [Example 171] was tested. Which pIC50 ([1]; A-427, pCDC2 MSD) did it give?
A: 6.00 to 7.00

Q: What about the pIC50 (Wee1 kinase domain; Wee1 kinase domain, ADP-Glo) of the same compound?
A: > 8.00

Q: How did the pIC50 [1, 2] turn out when CC1(C)C[C@H]2N(c3cccc(N=S(C)(C)=O)n3)c3nc(Nc4ccc(N5CCN6CCC[C@@H]6C5)cc4)ncc3[C@@]2(C)CO1 (single isomer, unassigned) [Example 505] was run?
A: 6.00 to 7.00

Q: What about the pIC50 (Wee1 kinase domain; [3]) of the same compound?
A: > 8.00

Q: CN1C[C@H]2C[C@@H]1CN2c1ccc(Nc2ncc3c(n2)N(c2cccc(P(C)(C)=O)n2)[C@@H]2CC(C)(C)OC[C@]32C)cc1 [Example 778, dimethyl(6-((4bR,8aR)-4b,7,7-trimethyl-2-((4-((1R,4R)-5-methyl-2,5-diazabicyclo[2.2.1]heptan-2-yl)phenyl)amino)-4b,7,8,8a-tetrahydropyrano[3′,4′:4,5]pyrrolo[2,3-d]pyrimidin-9(5H)-yl)pyridin-2-yl)phosphine oxide] was tested. Which pIC50 [1, 2] did it give?
A: 6.00 to 7.00

Q: And the pIC50 (Wee1 kinase domain; [3])?
A: > 8.00

Q: How did the pIC50 ([1]; A-427, pCDC2 MSD) turn out when CN1CCC(c2ncc(Nc3ncc4c(n3)N(c3cccc(N=S(C)(C)=O)n3)[C@@H]3CC(C)(C)OC[C@]43C)s2)CC1 (single isomer, unassigned) [Example 221] was run?
A: > 7.00

Q: What about the pIC50 (Wee1 kinase domain; Wee1 kinase domain, ADP-Glo) of the same compound?
A: > 8.00

Q: CC1(C)C[C@H]2N(c3cccc(N=S(C)(C)=O)n3)c3nc(NC(=O)[C@H]4C[C@@H]4c4cccnc4)ncc3[C@@]2(C)CO1 (single isomer, unassigned) [Example 402] was tested. Which pIC50 [1, 2] did it give?
A: 5.00 to 6.00

Q: And the pIC50 (Wee1 kinase domain; [3])?
A: 7.00 to 8.00

Q: Which results are given for CNCc1cccc(N2c3nc(NC(=O)[C@@H]4C[C@H]4c4cccnc4)ncc3[C@@]3(C)COC(C)(C)C[C@@H]23)n1 [Example 768, (1R,2R)-2-(pyridin-3-yl)-N-((4bR,8aR)-4b,7,7-trimethyl-9-(6-((methylamino)methyl)pyridin-2-yl)-4b,5,7,8,8a,9-hexahydropyrano[3′,4′:4,5]pyrrolo[2,3-d]pyrimidin-2-yl)cyclopropane-1-carboxamide]?
A: pIC50 [1, 2]: 6.00 to 7.00; pIC50 (Wee1 kinase domain; [3]): > 8.00

Q: Which results are given for CN=[S@@](C)(=O)c1cccc(N2c3nc(Nc4ccc(N5CC6(CN(C)C6)C5)cc4)ncc3[C@@]3(C)COC(C)(C)C[C@@H]23)n1 [Example 771, (S)-methyl(methylimino)(6-((4bR,8aR)-4b,7,7-trimethyl-2-((4-(6-methyl-2,6-diazaspiro[3.3]heptan-2-yl)phenyl)amino)-4b,7,8,8a-tetrahydropyrano[3′,4′:4,5]pyrrolo[2,3-d]pyrimidin-9(5H)-yl)pyridin-2-yl)-16-sulfanone]?
A: pIC50 [1, 2]: 6.00 to 7.00; pIC50 (Wee1 kinase domain; [3]): > 8.00

Q: Which results are given for CN1CC(c2ccc(Nc3ncc4c(n3)N(c3cccc(N5CCCC5=O)n3)[C@@H]3CC(C)(C)OC[C@]43C)cc2)C1 [Example 696, 1-(6-((4bR,8aR)-4b,7,7-trimethyl-2-((4-(1-methylazetidin-3-yl)phenyl)amino)-4b,7,8,8a-tetrahydropyrano[3′,4′:4,5]pyrrolo[2,3-d]pyrimidin-9(5H)-yl)pyridin-2-yl)pyrrolidin-2-one]?
A: pIC50 [1, 2]: 6.00 to 7.00; pIC50 (Wee1 kinase domain; [3]): > 8.00

Q: CN1CC(c2ccc(Nc3ncc4c(n3)N(c3cccc(N5CCOC5=O)n3)[C@@H]3CC(C)(C)OC[C@]43C)cc2)C1 [Example 698, 3-(6-((4bR,8aR)-4b,7,7-trimethyl-2-((4-(1-methylazetidin-3-yl)phenyl)amino)-4b,7,8,8a-tetrahydropyrano[3′,4′:4,5]pyrrolo[2,3-d]pyrimidin-9(5H)-yl)pyridin-2-yl)oxazolidin-2-one] was tested. Which pIC50 [1, 2] did it give?
A: 6.00 to 7.00

Q: What about the pIC50 (Wee1 kinase domain; [3]) of the same compound?
A: > 8.00

Q: What does the source list for Cc1cc(Nc2ncc3c(n2)N(c2cccc(N4C(=O)OC[C@@H]4C)n2)[C@@H]2CC(C)(C)OC[C@]32C)ccc1C1CCN(C)CC1 (single isomer, unassigned) [Example 238]?
A: pIC50 ([1]; A-427, pCDC2 MSD): 6.00 to 7.00; pIC50 (Wee1 kinase domain; Wee1 kinase domain, ADP-Glo): > 8.00

Q: How did the pIC50 ([1]; A-427, pCDC2 MSD) turn out when CNCc1cccc(N2c3nc(Nc4ccc([C@@H]5CCC(=O)N5C)nc4)ncc3[C@@]3(C)COC(C)(C)C[C@@H]23)n1 (single isomer, unassigned) [Example 96] was run?
A: 6.00 to 7.00

Q: And the pIC50 (Wee1 kinase domain; Wee1 kinase domain, ADP-Glo)?
A: > 8.00

Q: Which results are given for CN1[C@@H]2C[C@H]1CN(c1ccc(Nc3ncc4c(n3)N(c3cccc(N5CCCC5=O)n3)[C@@H]3CC(C)(C)OC[C@]43C)cc1)C2 [Example 703, 1-(6-((4bR,8aR)-4b,7,7-trimethyl-2-((4-((1R,5S)-6-methyl-3,6-diazabicyclo[3.1.1]heptan-3-yl)phenyl)amino)-4b,7,8,8a-tetrahydropyrano[3′,4′:4,5]pyrrolo[2,3-d]pyrimidin-9(5H)-yl)pyridin-2-yl)pyrrolidin-2-one]?
A: pIC50 [1, 2]: 6.00 to 7.00; pIC50 (Wee1 kinase domain; [3]): > 8.00

Q: Which results are given for CN1CCC(c2ccc(Nc3ncc4c(n3)N(c3cccc(N=S(C)(C)=O)c3)[C@@H]3CC(C)(C)OC[C@]43C)cn2)CC1 [Example 710, dimethyl((3-((4bR,8aR)-4b,7,7-trimethyl-2-((6-(1-methylpiperidin-4-yl)pyridin-3-yl)amino)-4b,7,8,8a-tetrahydropyrano[3′,4′:4,5]pyrrolo[2,3-d]pyrimidin-9(5H)-yl)phenyl)imino)-16-sulfanone]?
A: pIC50 [1, 2]: 5.00 to 6.00; pIC50 (Wee1 kinase domain; [3]): > 8.00

Q: With CC1(C)C[C@H]2N(c3cccc(N4CCOC4=O)n3)c3nc(Nc4ccc(O[C@H]5CCNC5)cc4)ncc3[C@@]2(C)CO1 [Example 613, 3-(6-((4bR,8aR)-4b,7,7-trimethyl-2-((4-(((S)-pyrrolidin-3-yl)oxy)phenyl)amino)-4b,7,8,8a-tetrahydropyrano[3′,4′:4,5]pyrrolo[2,3-d]pyrimidin-9(5H)-yl)pyridin-2-yl)oxazolidin-2-one] as the compound, how does the pIC50 [1, 2] read?
A: > 7.00

Q: What about the pIC50 (Wee1 kinase domain; [3]) of the same compound?
A: > 8.00

Q: What does the source list for CNCc1cccc(N2c3nc(Nc4ccc(-n5nccn5)cc4)ncc3[C@@]3(C)COC(C)(C)C[C@@H]23)n1 (single isomer, unassigned) [Example 767]?
A: pIC50 [1, 2]: 6.00 to 7.00; pIC50 (Wee1 kinase domain; [3]): > 8.00

Q: Cc1cccc(N2c3nc(Nc4ccc(N5CCN(C)CC5)cc4)ncc3[C@@]3(C)COC(C)(C)C[C@@H]23)n1 (single isomer, unassigned) [Example 759] was tested. Which pIC50 [1, 2] did it give?
A: 6.00 to 7.00

Q: What about the pIC50 (Wee1 kinase domain; [3]) of the same compound?
A: > 8.00

Q: With CC1(C)C[C@H]2N(c3cccc(N4CCOC4=O)n3)c3nc(Nc4ccc([C@@H]5CNCC5(F)F)cc4)ncc3[C@@]2(C)CO1 [Example 680, 3-(6-((4bR,8aR)-2-((4-((R)-4,4-difluoropyrrolidin-3-yl)phenyl)amino)-4b,7,7-trimethyl-4b,7,8,8a-tetrahydropyrano[3′,4′:4,5]pyrrolo[2,3-d]pyrimidin-9(5H)-yl)pyridin-2-yl)oxazolidin-2-one] as the compound, how does the pIC50 [1, 2] read?
A: 6.00 to 7.00

Q: What about the pIC50 (Wee1 kinase domain; [3]) of the same compound?
A: > 8.00

Q: Which results are given for C[C@H]1COC(=O)N1c1cccc(N2c3nc(Nc4ccc([C@@]5(C)CCN(C)C5)cc4)ncc3[C@@]3(C)COC(C)(C)C[C@@H]23)n1 (single isomer, unassigned) [Example 349]?
A: pIC50 ([1]; A-427, pCDC2 MSD): 6.00 to 7.00; pIC50 (Wee1 kinase domain; Wee1 kinase domain, ADP-Glo): > 8.00

Q: How did the pIC50 [1, 2] turn out when CC1(C)C[C@H]2N(c3cccc(C4(F)CNC4)n3)c3nc(Nc4ccc(N5CCOCC5)cc4)ncc3[C@@]2(C)CO1 (single isomer, unassigned) [Example 545] was run?
A: 6.00 to 7.00

Q: And the pIC50 (Wee1 kinase domain; [3])?
A: > 8.00

Q: With CN[C@H]1CCN(c2ccc(Nc3ncc4c(n3)N(c3cccc(N5C(=O)OC[C@@H]5C)n3)[C@@H]3CC(C)(C)OC[C@]43C)cc2)C1 (single isomer, unassigned) [Example 317] as the compound, how does the pIC50 ([1]; A-427, pCDC2 MSD) read?
A: 6.00 to 7.00

Q: And the pIC50 (Wee1 kinase domain; Wee1 kinase domain, ADP-Glo)?
A: > 8.00

Q: With CN1C[C@@H]2C[C@H]1CN2c1ccc(Nc2ncc3c(n2)N(c2cccc(C(C)(C)O)n2)[C@@H]2CC(C)(C)OC[C@]32C)cc1F (single isomer, unassigned) [Example 431] as the compound, how does the pIC50 [1, 2] read?
A: 6.00 to 7.00

Q: And the pIC50 (Wee1 kinase domain; [3])?
A: > 8.00

Q: Which results are given for CNCc1cccc(N2c3nc(Nc4ccc(N5CCOCC5)c(C)c4)ncc3[C@@]3(C)COC(C)(C)C[C@@H]23)n1 (single isomer, unassigned) [Example 26]?
A: pIC50 ([1]; A-427, pCDC2 MSD): 6.00 to 7.00; pIC50 (Wee1 kinase domain; Wee1 kinase domain, ADP-Glo): > 8.00

Q: With CC1(C)C[C@H]2N(c3cccc(N=S(C)(C)=O)n3)c3nc(Nc4ccc(C(F)F)nn4)ncc3[C@@]2(C)CO1 (single isomer, unassigned) [Example 377] as the compound, how does the pIC50 ([1]; A-427, pCDC2 MSD) read?
A: 5.00 to 6.00

Q: What about the pIC50 (Wee1 kinase domain; Wee1 kinase domain, ADP-Glo) of the same compound?
A: > 8.00

Q: How did the pIC50 [1, 2] turn out when CC(C)n1ccc(N2c3nc(Nc4ccc(N5CCN(C)CC5)cc4)ncc3[C@@]3(C)COC(C)(C)C[C@@H]23)n1 (single isomer, unassigned) [Example 721] was run?
A: 6.00 to 7.00

Q: And the pIC50 (Wee1 kinase domain; [3])?
A: > 8.00

— patent US20260166039A1 (SCHRÖDINGER, INC., priority 2022, published 2026)
